In patent US20240067632A1, “WEE1 Degrading Compounds and Uses Thereof” (Bristol-Myers Squibb Company, priority 2022, published 2024):
pEC50: −log10 of the molar value. Read-outs that look alike come from different tables or passages of the source.

What was measured:
MKN45 cells = assay: MKN45 cell proliferation assay (Cell-Titer-Glo, 120 h); assay type: cell-based; settings: for pEC50: Homo sapiens, MKN-45, 120 h, Cell-Titer-Glo, read-out: MKN45 Cell Prolif. 120 hr (EC50); for MKN45 Cell Prolif. 120 hr (Ymin-Obs): minimal percent of DMSO control observed in the concentrations tested
Procedure, shortened: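 Cells seeded at 400/well onto pre-printed 10-point half-log dilutions (top 1 or 10 uM, 0.1% DMSO final), in triplicate, and grown 120 h at 37 C. Viability by Cell-Titer-Glo luminescence, blank-subtracted and normalised to DMSO; EC50 from four-parameter logistic fit, with observed minimal % of control recorded as Ymin-obs.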

WEE1 = molecular target: T1, WEE1 (Homo sapiens, UniProt P30291+Q96SW2); assay: WEE1-ePL degradation assay (LentiX-WEE1-ePL-GSPT1-ND cells, InCELL Hunter luminescence, 4 h); assay type: cell-based; settings: 293T-LentiX WEE1-ePL cells; for DC50: read-out: 293T-LentiX WEE1-ePL Degradation 4 hr (EC50)
T1 construct: C-terminal ePL-tagged (DiscoverX, Fremont, CA) full-length WEE1 expression construct; expressed in transfected cells; host or cells: LentiX-HEK293T (Invitrogen), lentiviral transduction; co-expressing GSPT1-GN (G576N, lacking the first 158 amino acids)
Procedure, shortened: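 Luminescent readout (InCELL Hunter, 30 min RT) of WEE1-ePL levels in transduced HEK293T cells after 4 h compound exposure at 37 °C. Dosing: 10 points, 3-fold steps, top 1 uM or 10 uM. EC50 from four-parameter logistic fit; Ymax set by DMSO.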

[1] = lower limit of the fit (Ymin=0 luciferase inhibitor, Ymax DMSO control)
[2] = lower limit of the fit (0 = luciferase inhibitor, Ymax = DMSO control)

Row | SMILES | pEC50 (MKN45 cells) | 293T-LentiX WEE1-ePL Degradation 4 hr (Ymin) (WEE1; [1]) | DC50 (WEE1) [nM] | pEC50 (MKN45 cells; growth inhibition) | 293T-LentiX WEE1-ePL Degradation 4 hr (Ymin) (WEE1; [2]) | MKN45 Cell Prolif. 120 hr (Ymin-Obs) (MKN45 cells)
1 | CN1CCN(c2ncc3cc(CN4CC[C@H](Oc5ccc6c(c5)CN([C@H]5CCC(=O)NC5=O)C6=O)C4)ccc3n2)CC1 [(3S)-3-(5-{[(3S)-1-{[2-(4-methylpiperazin-1-yl)quinazolin-6-yl]methyl}pyrrolidin-3-yl]oxy}-1-oxo-2,3-dihydro-1H-isoindol-2-yl)piperidine-2,6-dione] | 7.82 | 37.97 | 11.1 |  |  | 12.23
2 | O=C1CC[C@H](N2Cc3cc(O[C@H]4CCN(Cc5ccc6nc([C@H]7CCOC7)ccc6c5)C4)ccc3C2=O)C(=O)N1 [(3S)-3-(1-oxo-5-{[(3S)-1-({2-[(3R)-oxolan-3-yl]quinolin-6-yl}methyl)pyrrolidin-3-yl]oxy}-2,3-dihydro-1H-isoindol-2-yl)piperidine-2,6-dione] |  |  | 2.59 | 8.57 | 35.5 | 8.547
3 | Cn1ncc2cc(CN3CC[C@H](Oc4ccc5c(c4)CN(C4CCC(=O)NC4=O)C5=O)C3)ccc21 (stereo partly drawn) [3-(5-{[(3S)-1-[(1-methyl-1H-indazol-5-yl)methyl]pyrrolidin-3-yl]oxy}-1-oxo-2,3-dihydro-1H-isoindol-2-yl)piperidine-2,6-dione] |  |  | 68.8 | < 5.00 | 61 | 86.69
4 | O=C1CCC(N2Cc3cc(O[C@H]4CCN(Cc5cnc6ccccn56)C4)ccc3C2=O)C(=O)N1 (stereo partly drawn) [3-(5-{[(3S)-1-({imidazo[1,2-a]pyridin-3-yl}methyl)pyrrolidin-3-yl]oxy}-1-oxo-2,3-dihydro-1H-isoindol-2-yl)piperidine-2,6-dione] |  |  | 150 | 6.03 | 33.52 | 21.75
5 | O=C1CC[C@@H](N2Cc3cc(O[C@H]4CCN(Cc5ccc6nc(N7CCOCC7)ncc6c5)C4)ccc3C2=O)C(=O)N1 [(3R)-3-(5-{[(3S)-1-{[2-(morpholin-4-yl)quinazolin-6-yl]methyl}pyrrolidin-3-yl]oxy}-1-oxo-2,3-dihydro-1H-isoindol-2-yl)piperidine-2,6-dione] | 7.62 | 31.07 | 46.3 |  |  | 17.43
6 | O=C1CCC(N2Cc3cc(O[C@H]4CCN(Cc5ccc6nc([C@H]7C[C@@H](O)C7)ccc6c5)C4)ccc3C2=O)C(=O)N1 (stereo partly drawn) [3-(1-oxo-5-{[(3S)-1-({2-[(1s,3s)-3-hydroxycyclobutyl]quinolin-6-yl}methyl)pyrrolidin-3-yl]oxy}-2,3-dihydro-1H-isoindol-2-yl)piperidine-2,6-dione] |  |  | 2.09 | 8.28 | 31 | 6.89
7 | O=C1CCC(N2C(=O)c3ccc(O[C@H]4CCN(Cc5cccc6ncccc56)C4)cc3C2=O)C(=O)N1 (stereo partly drawn) [2-(2,6-dioxopiperidin-3-yl)-5-{[(3S)-1-[(quinolin-5-yl)methyl]pyrrolidin-3-yl]oxy}-2,3-dihydro-1H-isoindole-1,3-dione] |  |  | 79.2 | 5.65 | 30.52 | 44.93
8 | O=C1CC[C@H](N2Cc3cc(O[C@H]4CCN(Cc5ccc6nc(C7CCOCC7)ncc6c5)C4)ccc3C2=O)C(=O)N1 [(3S)-3-(5-{[(3S)-1-{[2-(oxan-4-yl)quinazolin-6-yl]methyl}pyrrolidin-3-yl]oxy}-1-oxo-2,3-dihydro-1H-isoindol-2-yl)piperidine-2,6-dione] |  |  | 75 | 7.53 | 32.12 | 9.327
9 | N#Cc1ccc2cc(CN3C[C@H](F)[C@H](Oc4ccc5c(c4)CN(C4CCC(=O)NC4=O)C5=O)C3)ccc2n1 (stereo partly drawn) [6-{[(3R,4S)-3-{[2-(2,6-dioxopiperidin-3-yl)-1-oxo-2,3-dihydro-1H-isoindol-5-yl]oxy}-4-fluoropyrrolidin-1-yl]methyl}quinoline-2-carbonitrile] |  |  | 13.1 | 7.64 | 33.71 | 24.13

More lines, in order of falling DC50 (WEE1), values ahead:

Row | pEC50 (MKN45 cells) | 293T-LentiX WEE1-ePL Degradation 4 hr (Ymin) (WEE1; [1]) | DC50 (WEE1) [nM] | pEC50 (MKN45 cells; growth inhibition) | 293T-LentiX WEE1-ePL Degradation 4 hr (Ymin) (WEE1; [2]) | SMILES | MKN45 Cell Prolif. 120 hr (Ymin-Obs) (MKN45 cells)
10 | 8.78 | 25.61 | 5.4 |  |  | COC[C@@H]1CN(Cc2ccc3nc(N4CCOCC4)ncc3c2)C[C@H]1Oc1ccc2c(c1)CN([C@H]1CCC(=O)NC1=O)C2=O [(3S)-3-(5-{[(3S,4S)-4-(methoxymethyl)-1-{[2-(morpholin-4-yl)quinazolin-6-yl]methyl}pyrrolidin-3-yl]oxy}-1-oxo-2,3-dihydro-1H-isoindol-2-yl)piperidine-2,6-dione] | 8.574
11 |  |  | 5.32 | 7.61 | 30.295 | O=C1CCC(N2Cc3cc(O[C@H]4CCN(Cc5cc6cccc(F)c6cn5)C4)ccc3C2=O)C(=O)N1 (stereo partly drawn) [3-(5-{[(3S)-1-[(8-fluoroisoquinolin-3-yl)methyl]pyrrolidin-3-yl]oxy}-1-oxo-2,3-dihydro-1H-isoindol-2-yl)piperidine-2,6-dione] | 10.49
12 |  |  | 3.19 | 8.42 | 38 | O=C1CCC(N2Cc3cc(O[C@H]4CCN(Cc5ccc6nc(N7C[C@@H]8C9CCC(O9)[C@@H]8C7)ccc6c5)C4)ccc3C2=O)C(=O)N1 (stereo partly shown) | 10.93
13 | 7.92 | 37.17 | 3.01 |  |  | CO[C@@H]1CCC[C@H]1c1ccc2cc(CN3CC[C@H](Oc4ccc5c(c4)CN(C4CCC(=O)NC4=O)C5=O)C3)ccc2n1 (stereo partly drawn) [3-(5-{[(3S)-1-({2-[(1S,2R)-2-methoxycyclopentyl]quinolin-6-yl}methyl)pyrrolidin-3-yl]oxy}-1-oxo-2,3-dihydro-1H-isoindol-2-yl)piperidine-2,6-dione] | 13.63
14 |  |  | 2.83 | 8.31 | 32.6 | O=C1CCC(N2Cc3cc(O[C@H]4CCN(Cc5ccc6nc(C7CCOCC7)ccc6c5)C4)ccc3C2=O)C(=O)N1 (stereo partly drawn) [3-(5-{[(3S)-1-{[2-(oxan-4-yl)quinolin-6-yl]methyl}pyrrolidin-3-yl]oxy}-1-oxo-2,3-dihydro-1H-isoindol-2-yl)piperidine-2,6-dione] | 12.83
15 | 8.66 | 26.77 | 2.76 |  |  | O=C1CC[C@H](N2Cc3cc(O[C@@H]4CN(Cc5cc6ccc(C7CCOCC7)cc6cn5)CC4(F)F)ccc3C2=O)C(=O)N1 [(3S)-3-(5-{[(3R)-4,4-difluoro-1-{[7-(oxan-4-yl)isoquinolin-3-yl]methyl}pyrrolidin-3-yl]oxy}-1-oxo-2,3-dihydro-1H-isoindol-2-yl)piperidine-2,6-dione] | 9.546
16 |  |  | 2.49 | 8.43 | 30.5 | COC1CCN(c2ccc3cc(CN4CC[C@H](Oc5ccc6c(c5)CN(C5CCC(=O)NC5=O)C6=O)C4)ccc3n2)CC1 (stereo partly drawn) [3-(5-{[(3S)-1-{[2-(4-methoxypiperidin-1-yl)quinolin-6-yl]methyl}pyrrolidin-3-yl]oxy}-1-oxo-2,3-dihydro-1H-isoindol-2-yl)piperidine-2,6-dione] | 9.39
